Some test systems named below: 786-0 renal; A498 renal; ACHN renal; HS 578T breast; M14 melanoma; T-47D breast; U251 CNS; UO-31 renal.
What all share (assay): DTP human tumour cell line panel, 48 h

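Results reflect a 48-hour exposure of cells in 96-well plates to compound at five concentrations. Abbreviation: GI50, concentration required for 50% inhibition of growth. TGI: total growth inhibition.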 Where only a bound is given, the exact number is not on record here.

Turning to `CC1SC(c2ccc(Cl)cc2Cl)N(NC(=O)C(O)c2ccccc2)C1=O` (stereo not drawn), the GI50 is more than 100 µM in the assay on 786-0 renal; more than 100 µM in the assay with A498 renal; 48.4 µM with ACHN renal; more than 100 µM in the assay on HS 578T breast; 42.9 µM with M14 melanoma; more than 100 µM with T-47D breast. Moreover, the GI50 in the assay on U251 CNS was 61.4 µM; in the assay on UO-31 renal it was 48.9 µM. For the same compound, the TGI in the assay with 786-0 renal, in the assay with A498 renal, in the assay on ACHN renal, with HS 578T breast, in the assay on M14 melanoma and with T-47D breast was more than 100 µM each time. The TGI in the assay on U251 CNS and in the assay on UO-31 renal was more than 100 µM each time.
In the case of `COc1cc2c3c(n(CCCNCCCN)c(=O)c2cc1OC)-c1cc2c(cc1C3=O)OCO2`, the GI50 in the assay on 786-0 renal was 2.83 µM; in the assay with A498 renal, 18 µM; in the assay on ACHN renal, 3.14 µM; in the assay on HS 578T breast, 6.28 µM; with M14 melanoma, 4.65 µM; in the assay with T-47D breast it was 2.8 µM. Also, the figures for the GI50 with U251 CNS and with UO-31 renal were 1.25 µM and 15.4 µM, respectively. For the same compound, the TGI amounted to 14.2 µM in the assay on 786-0 renal; 35.6 µM in the assay on A498 renal; 13.7 µM in the assay with ACHN renal; 42.8 µM in the assay with HS 578T breast; 16.7 µM with M14 melanoma; 14.7 µM in the assay on T-47D breast. Also, the TGI in the assay with U251 CNS is 11.4 µM; with UO-31 renal it was 38.5 µM.
For the compound `O=P(O)(O)OCC1OC(n2cnc3c(NCc4ccccc4)ncnc32)C(O)C1O` (stereo not drawn), the GI50 in the assay on 786-0 renal is 2.83 µM; in the assay on A498 renal it was 2.05 µM; in the assay on ACHN renal it was 1.4 µM; in the assay with HS 578T breast it was 1.02 µM; with M14 melanoma, 2.68 µM; in the assay with T-47D breast it was 1.37 µM. In addition, the results for the GI50 in the assay with U251 CNS and in the assay on UO-31 renal were 5.21 µM and 3.38 µM, respectively. In addition, the concentration for total growth inhibition (TGI) in the assay on 786-0 renal was more than 67.6 µM; with A498 renal, 7.44 µM; with ACHN renal, more than 69.1 µM; in the assay on HS 578T breast it was 6.1 µM; with M14 melanoma, more than 100 µM; in the assay with T-47D breast, 10.3 µM. Further, the total growth inhibition concentration (TGI) with U251 CNS was more than 100 µM; with UO-31 renal it was 32.4 µM.
For `O=C1NC(c2ccccc2)C2(C(=O)O)CN(C3CC3)c3cc(N4CCNCC4)c(F)cc3C2N1` (stereo not drawn), the GI50 with 786-0 renal, in the assay on ACHN renal, in the assay with HS 578T breast, in the assay on T-47D breast, in the assay with U251 CNS and with UO-31 renal was more than 100 µM each time. Further, the concentration for total growth inhibition (TGI) in the assay with 786-0 renal, with ACHN renal, with HS 578T breast, in the assay on T-47D breast, in the assay on U251 CNS and with UO-31 renal was more than 100 µM in each case.
`O=C(O)c1ccc(SSc2ccc(C(=O)O)cn2)nc1`: the total growth inhibition concentration (TGI) in the assay on 786-0 renal, with A498 renal, in the assay on ACHN renal, in the assay on HS 578T breast, with M14 melanoma and in the assay on T-47D breast was more than 100 µM throughout. For the same compound, in the assay on U251 CNS, the TGI is more than 100 µM.
Consider `CC(C)(C)OC(=O)Nc1ccc2c(c1)C(NC(=O)Nc1cccc(C#N)c1)CC(C)(C)O2` (stereo not drawn), for which the GI50 with 786-0 renal is 5.05 µM; with A498 renal it was 7.14 µM; in the assay with ACHN renal, 3.99 µM; in the assay on HS 578T breast it was 8.79 µM; in the assay with M14 melanoma it was 3.73 µM; in the assay with T-47D breast, 2.52 µM. The GI50 in the assay with U251 CNS is 1.76 µM; in the assay on UO-31 renal, 3.36 µM. The TGI with 786-0 renal was more than 100 µM; in the assay with A498 renal, more than 100 µM; in the assay with ACHN renal it was more than 100 µM; with HS 578T breast it was more than 100 µM; in the assay with M14 melanoma, 40.5 µM; in the assay with T-47D breast, 33 µM. The total growth inhibition concentration (TGI) in the assay with U251 CNS was more than 58.2 µM; in the assay with UO-31 renal it was more than 100 µM.
For the compound `CCOC(=O)/C=C/c1cccc(F)c1`, the TGI with 786-0 renal, in the assay on A498 renal, in the assay on ACHN renal, in the assay with M14 melanoma, in the assay with T-47D breast and with U251 CNS was more than 100 µM each time. Moreover, in the assay on UO-31 renal, the TGI is more than 100 µM.
In the case of `COc1c(N2CCN(CN3C(=O)C(=Nc4ccc(S(=O)(=O)Nc5ncccn5)cc4)c4cc(Cl)ccc43)C(C)C2)c(F)cc2c(=O)c(C(=O)O)cn(C3CC3)c12` (stereo not drawn), the GI50 was 19.2 µM in the assay on 786-0 renal; 11.8 µM in the assay with ACHN renal; 11.9 µM in the assay on HS 578T breast; 13.8 µM in the assay on M14 melanoma; 34.8 µM with U251 CNS; 37.5 µM in the assay on UO-31 renal. Moreover, the TGI is more than 50 µM in the assay on 786-0 renal; more than 50 µM in the assay with ACHN renal; 42.8 µM with HS 578T breast; 44.7 µM in the assay on M14 melanoma; more than 50 µM with U251 CNS; more than 50 µM in the assay with UO-31 renal.
Regarding `COc1ccc2nc3cc(Cl)ccc3c(Nc3cc(CN4CCCC4)c(O)c(CN4CCCC4)c3)c2n1`, the GI50 is 1.87 µM in the assay with 786-0 renal; 1.69 µM in the assay on ACHN renal; 1.62 µM with M14 melanoma; 2.74 µM in the assay with T-47D breast; 2.21 µM in the assay on U251 CNS; 1.44 µM in the assay on UO-31 renal. Besides, the concentration for total growth inhibition (TGI) came to 11.4 µM with 786-0 renal; 10.3 µM with ACHN renal; 2.97 µM in the assay on M14 melanoma; 9.55 µM with T-47D breast; 11.5 µM in the assay on U251 CNS; 12.7 µM in the assay on UO-31 renal.
Take `O=C(/C=C/C12c3ccccc3C(c3ccccc31)C1C(=O)NC(=O)C12)c1ccccc1` (stereo not drawn): the GI50 in the assay with 786-0 renal was 1.7 µM; with A498 renal, 1.42 µM; in the assay on ACHN renal it was 1.75 µM; with HS 578T breast it was 2.19 µM; in the assay with M14 melanoma it was 1.78 µM; in the assay with U251 CNS, 1.55 µM. For the same compound, in the assay on UO-31 renal, the GI50 is 1.53 µM. The concentration for total growth inhibition (TGI) was 3.1 µM with 786-0 renal; 2.82 µM in the assay on A498 renal; 3.59 µM in the assay with ACHN renal; 7.68 µM with HS 578T breast; 3.68 µM in the assay on M14 melanoma; 2.96 µM with U251 CNS. In the assay with UO-31 renal, this compound came in with a total growth inhibition concentration (TGI) of 2.88 µM.
